Laboratory results as given in patent US8758816B2, “Compositions comprising azelastine and methods of use thereof” (priority 2004, dated 2014).
Counter-ions that a name gives are not always drawn.

System: patients with seasonal allergic rhinitis (SAR)
Assay: MP 428 study: individual symptom severity scores (runny nose, itchy nose, sneezing, congestion; 0-3 scale)
Assay type: in vivo, human
Details: Intent-to-Treat Population
Description: A two-week, randomized, double-blind study, which evaluated the effects of the co-administration of ASTELIN® (azelastine hydrochloride (HCl)) and FLONASE® (fluticasone propionate) compared to either product alone in patients with seasonal allergic rhinitis (SAR) was conducted during the 2006 Texas mountain cedar season. After a 5-day placebo lead-in period, 151 patients with moderate-to-severe allergic rhinitis symptoms were randomized to either: (1) (49 total patients) ASTELIN® (azelastine hydrochloride (HCl)) plus placebo saline nasal spray 2 sprays per nostril, 15 minutes apart, twice daily (AM & PM); (2) (50 total patients) FLONASE® (fluticasone propionate) plus placebo saline nasal spray, 2 sprays per nostril, 15 minutes apart, once daily (AM) and two sessions of placebo saline nasal spray, 2 sprays per nostril, 15 minutes apart (PM); or (3) (52 total patients) the co-administration of ASTELIN® (azelastine hydrochloride (HCl)) 2 sprays per nostril plus FLONASE® (fluticasone propionate) 2 sprays per nostril (AM), 15 minutes apart, and ASTELIN® (azelastine hydrochloride (HCl)) 2 sprays per nostril plus placebo saline nasal spray, 15 minutes apart, (PM) for a 2-week double-blind treatment period.
The primary efficacy variable was the change from baseline in the Total Nasal Symptom Score (TNSS), which comprised sneezing, itchy nose, runny nose, and nasal congestion (individual symptoms scores were assigned a value between 0 and 3, where 0=no symptoms and 3=severe symptoms). This study was not statistically designed to assess the differences between ASTELIN® and FLONASE®.
The results of the clinical trial are summarized and presented in Appendix A hereinbelow and in FIGS. 1-6. […] FIGS. 2-5 show the mean improvement in severity score (0-3 scale) from baseline for the symptoms of runny nose, itchy nose, sneezing and congestion, respectively.

CN1CCCC(n2nc(Cc3ccc(Cl)cc3)c3ccccc3c2=O)CC1 (racemic) [Azelastine, (±)-1-(2H)-phthalazinone, 4-[(4-chlorophenyl)methyl]-2-(hexahydro-1-methyl-1H-azepin-4-yl)-, mono-hydrochloride]
Change from Baseline in AM and PM Combined Nasal Symptom Score: Congestion, LS Mean (Day 2): −0.73 | Change from Baseline in AM and PM Combined Nasal Symptom Score: Congestion, Mean (Day 2): −0.78 | Change from Baseline in AM and PM Combined Nasal Symptom Score: Congestion, Median (Day 2): −0.17 | Change from Baseline in AM and PM Combined Nasal Symptom Score: Itchy Nose, LS Mean (Day 2): −0.58 | Change from Baseline in AM and PM Combined Nasal Symptom Score: Itchy Nose, Mean (Day 2): −0.61 | Change from Baseline in AM and PM Combined Nasal Symptom Score: Itchy Nose, Median (Day 2): −0.50 | Change from Baseline in AM and PM Combined Nasal Symptom Score: Runny Nose, LS Mean (Day 2): −0.70 | Change from Baseline in AM and PM Combined Nasal Symptom Score: Runny Nose, Mean (Day 2): −0.72 | Change from Baseline in AM and PM Combined Nasal Symptom Score: Runny Nose, Median (Day 2): −0.42 | Change from Baseline in AM and PM Combined Nasal Symptom Score: Sneezing, LS Mean (Day 2): −1.09 | Change from Baseline in AM and PM Combined Nasal Symptom Score: Sneezing, Mean (Day 2): −1.11 | Change from Baseline in AM and PM Combined Nasal Symptom Score: Sneezing, Median (Day 2): −0.90 | Percent Change from Baseline in AM and PM Combined Nasal Symptom Score: Congestion, LS Mean (Day 2): −13.19% | Percent Change from Baseline in AM and PM Combined Nasal Symptom Score: Congestion, Mean (Day 2): −14.05% | Percent Change from Baseline in AM and PM Combined Nasal Symptom Score: Congestion, Median (Day 2): −3.23% | Percent Change from Baseline in AM and PM Combined Nasal Symptom Score: Itchy Nose, LS Mean (Day 2): −13.14% | Percent Change from Baseline in AM and PM Combined Nasal Symptom Score: Itchy Nose, Mean (Day 2): −13.55% | Percent Change from Baseline in AM and PM Combined Nasal Symptom Score: Itchy Nose, Median (Day 2): −11.11% | Percent Change from Baseline in AM and PM Combined Nasal Symptom Score: Runny Nose, LS Mean (Day 2): −13.68% | Percent Change from Baseline in AM and PM Combined Nasal Symptom Score: Runny Nose, Mean (Day 2): −14.08% | Percent Change from Baseline in AM and PM Combined Nasal Symptom Score: Runny Nose, Median (Day 2): −7.98% | Percent Change from Baseline in AM and PM Combined Nasal Symptom Score: Sneezing, LS Mean (Day 2): −26.72% | Percent Change from Baseline in AM and PM Combined Nasal Symptom Score: Sneezing, Mean (Day 2): −26.94% | Percent Change from Baseline in AM and PM Combined Nasal Symptom Score: Sneezing, Median (Day 2): −21.05% | Change from Baseline in AM and PM Combined Nasal Symptom Score: Congestion, LS Mean (Day 3): −0.62 | Change from Baseline in AM and PM Combined Nasal Symptom Score: Congestion, Mean (Day 3): −0.68 | Change from Baseline in AM and PM Combined Nasal Symptom Score: Congestion, Median (Day 3): 0.00 | Change from Baseline in AM and PM Combined Nasal Symptom Score: Itchy Nose, LS Mean (Day 3): −0.85 | Change from Baseline in AM and PM Combined Nasal Symptom Score: Itchy Nose, Mean (Day 3): −0.84 | Change from Baseline in AM and PM Combined Nasal Symptom Score: Itchy Nose, Median (Day 3): −0.75 | Change from Baseline in AM and PM Combined Nasal Symptom Score: Runny Nose, LS Mean (Day 3): −0.74 | Change from Baseline in AM and PM Combined Nasal Symptom Score: Runny Nose, Mean (Day 3): −0.79 | Change from Baseline in AM and PM Combined Nasal Symptom Score: Runny Nose, Median (Day 3): −1.00 | Change from Baseline in AM and PM Combined Nasal Symptom Score: Sneezing, LS Mean (Day 3): −0.99 | Change from Baseline in AM and PM Combined Nasal Symptom Score: Sneezing, Mean (Day 3): −0.97 | Change from Baseline in AM and PM Combined Nasal Symptom Score: Sneezing, Median (Day 3): −0.77 | Percent Change from Baseline in AM and PM Combined Nasal Symptom Score: Congestion, LS Mean (Day 3): −10.71% | Percent Change from Baseline in AM and PM Combined Nasal Symptom Score: Congestion, Mean (Day 3): −11.70% | Percent Change from Baseline in AM and PM Combined Nasal Symptom Score: Congestion, Median (Day 3): 0.00% | Percent Change from Baseline in AM and PM Combined Nasal Symptom Score: Itchy Nose, LS Mean (Day 3): −19.04% | Percent Change from Baseline in AM and PM Combined Nasal Symptom Score: Itchy Nose, Mean (Day 3): −18.60% | Percent Change from Baseline in AM and PM Combined Nasal Symptom Score: Itchy Nose, Median (Day 3): −16.67% | Percent Change from Baseline in AM and PM Combined Nasal Symptom Score: Runny Nose, LS Mean (Day 3): −13.72% | Percent Change from Baseline in AM and PM Combined Nasal Symptom Score: Runny Nose, Mean (Day 3): −14.69% | Percent Change from Baseline in AM and PM Combined Nasal Symptom Score: Runny Nose, Median (Day 3): −16.67% | Percent Change from Baseline in AM and PM Combined Nasal Symptom Score: Sneezing, LS Mean (Day 3): −23.56% | Percent Change from Baseline in AM and PM Combined Nasal Symptom Score: Sneezing, Mean (Day 3): −22.81% | Percent Change from Baseline in AM and PM Combined Nasal Symptom Score: Sneezing, Median (Day 3): −16.08% | Change from Baseline in AM and PM Combined Nasal Symptom Score: Congestion, LS Mean (Day 4): −0.78 | Change from Baseline in AM and PM Combined Nasal Symptom Score: Congestion, Mean (Day 4): −0.82 | Change from Baseline in AM and PM Combined Nasal Symptom Score: Congestion, Median (Day 4): −0.92 | Change from Baseline in AM and PM Combined Nasal Symptom Score: Itchy Nose, LS Mean (Day 4): −1.01 | Change from Baseline in AM and PM Combined Nasal Symptom Score: Itchy Nose, Mean (Day 4): −1.00 | Change from Baseline in AM and PM Combined Nasal Symptom Score: Itchy Nose, Median (Day 4): −0.73 | Change from Baseline in AM and PM Combined Nasal Symptom Score: Runny Nose, LS Mean (Day 4): −0.76 | Change from Baseline in AM and PM Combined Nasal Symptom Score: Runny Nose, Mean (Day 4): −0.79 | Change from Baseline in AM and PM Combined Nasal Symptom Score: Runny Nose, Median (Day 4): −0.43 | Change from Baseline in AM and PM Combined Nasal Symptom Score: Sneezing, LS Mean (Day 4): −1.34 | Change from Baseline in AM and PM Combined Nasal Symptom Score: Sneezing, Mean (Day 4): −1.32 | Change from Baseline in AM and PM Combined Nasal Symptom Score: Sneezing, Median (Day 4): −1.00 | Percent Change from Baseline in AM and PM Combined Nasal Symptom Score: Congestion, LS Mean (Day 4): −13.79% | Percent Change from Baseline in AM and PM Combined Nasal Symptom Score: Congestion, Mean (Day 4): −14.44% | Percent Change from Baseline in AM and PM Combined Nasal Symptom Score: Congestion, Median (Day 4): −16.67% | Percent Change from Baseline in AM and PM Combined Nasal Symptom Score: Itchy Nose, LS Mean (Day 4): −22.54% | Percent Change from Baseline in AM and PM Combined Nasal Symptom Score: Itchy Nose, Mean (Day 4): −22.23% | Percent Change from Baseline in AM and PM Combined Nasal Symptom Score: Itchy Nose, Median (Day 4): −13.79% | Percent Change from Baseline in AM and PM Combined Nasal Symptom Score: Runny Nose, LS Mean (Day 4): −15.76% | Percent Change from Baseline in AM and PM Combined Nasal Symptom Score: Runny Nose, Mean (Day 4): −16.23% | Percent Change from Baseline in AM and PM Combined Nasal Symptom Score: Runny Nose, Median (Day 4): −7.98% | Percent Change from Baseline in AM and PM Combined Nasal Symptom Score: Sneezing, LS Mean (Day 4): −32.76% | Percent Change from Baseline in AM and PM Combined Nasal Symptom Score: Sneezing, Mean (Day 4): −31.90% | Percent Change from Baseline in AM and PM Combined Nasal Symptom Score: Sneezing, Median (Day 4): −25.00% | Change from Baseline in AM and PM Combined Nasal Symptom Score: Congestion, LS Mean (Day 5): −1.02 | Change from Baseline in AM and PM Combined Nasal Symptom Score: Congestion, Mean (Day 5): −1.07 | Change from Baseline in AM and PM Combined Nasal Symptom Score: Congestion, Median (Day 5): −0.90 | Change from Baseline in AM and PM Combined Nasal Symptom Score: Itchy Nose, LS Mean (Day 5): −1.11 | Change from Baseline in AM and PM Combined Nasal Symptom Score: Itchy Nose, Mean (Day 5): −1.10 | Change from Baseline in AM and PM Combined Nasal Symptom Score: Itchy Nose, Median (Day 5): −0.75 | Change from Baseline in AM and PM Combined Nasal Symptom Score: Runny Nose, LS Mean (Day 5): −0.96 | Change from Baseline in AM and PM Combined Nasal Symptom Score: Runny Nose, Mean (Day 5): −0.97 | Change from Baseline in AM and PM Combined Nasal Symptom Score: Runny Nose, Median (Day 5): −0.67 | Change from Baseline in AM and PM Combined Nasal Symptom Score: Sneezing, LS Mean (Day 5): −1.36 | Change from Baseline in AM and PM Combined Nasal Symptom Score: Sneezing, Mean (Day 5): −1.34 | Change from Baseline in AM and PM Combined Nasal Symptom Score: Sneezing, Median (Day 5): −1.03
